Experiments:
CDHFD/NaNO2 rats [1] = test: Quantitative morphometric analysis of liver collagen by Picrosirius Red (PSR) staining in CDHFD/NaNO2 rat model of NASH; format: in vivo, male Wistar rats; conditions: week 4 to 14; for PSR area (% area of liver): mean±SEM, vehicle-treated CDHFD/NaNO2 rats 8.5±0.6%, healthy control 1.7±0.3%, Formula (I) 0.2% in diet, Formula (III) 30 mg/kg/day; for reduction of liver collagen (PSR): vs vehicle-treated CDHFD/NaNO2 rats, Formula (I) 0.2% admixture in diet, Formula (III) 30 mg/kg/day in diet
Description: (§1) The following study was conducted to evaluate the efficacy of the combination of an ASK1 inhibitor and an FXR agonist in a rodent model of non-alcoholic steatohepatitis (NASH), relative to the efficacy of the individual agents alone in the model. NASH was induced in male Wistar rats by administration of a choline-deficient high fat diet (CDHFD) combined with the chronic administration of sodium nitrite (CDHFD/NaNO2). The model capitalizes on the “two hit theory” of NASH by inducing both metabolic dysfunction (CDHFD) and oxidative stress (NaNO2) in the liver to result in hepatic fibrosis that is similar in character and severity to that seen in patients with advanced NASH. Rats were fed CDHFD for a total of 14 weeks and were administered NaNO2 from week 4 to 14. The compound of Formula (III) (given as admixture in diet, adjusted to deliver 30 mg/kg/day), compound of Formula (I) (administered as a 0.2% admixture in diet), or vehicle was administered from week 4 to 14. The following endpoints were assessed at the completion of the 14 week study: i) liver fibrosis measured by liver hydroxyproline (OHP) content and by quantitative morphometric analysis of collagen content by Picosirius red (PSR) staining; ii) myofibroblast activation in liver sections as measured by quantitative IHC of the myofibroblast marker desmin; and, iii) Col1a1 and Timp1 in liver tissue measured by RT-PCR. All CDHFD/NaNO2 animals were fed a choline-deficient high-fat diet (CDHFD; Research Diets, Inc) for 14 weeks and were also administered intraperitoneal injections of NaNO2 (3 injections per week; Sigma Aldrich #31443) at a dose of 25 mg/kg (from week 4 to 10) and at a dose of 12.5 mg/kg (from week 10 to 14). Formula (III) (given as admixture in the CDHFD diet, adjusted to deliver 30 mg/kg/day, n=10 animals per group) and Formula (I) (given as a 0.2% admixture in the CDHFD diet, n=10 per group) were administered drug from week 4 to 14. Vehicle control animals were administered the same CDHFD diet with no drug added (Vehicle; n=10 animals per group) from week 4 to 14. […] On the final day of study, rats received a single oral gavage of either Formula (I) or Formula (III) at a dose of 30 mg/kg, four hours before animals were euthanized and tissues were collected for analyses. All endpoints were assessed at the completion of the 14 week study protocol. Whole slide images of Picrosirius Red (PSR) and Desmin stained slides were captured using a Leica AT2 scanner at 40× magnification. […] Quantitative image analysis was performed on the whole slide-scan images using Definiens Tissue Studio Architect XD (Definiens Inc.) to determine the extent and intensity of PSR and Desmin. […] The total PSR-stained area and Desmin IHC staining were measured and expressed as a percentage of total liver area stained.

FFD mice = test: Plasma bile acids by LC-MS/MS in FFD mouse model of NASH; format: in vivo, male C57BL/6 mice; conditions: Formula (I) 0.15% admixture in diet, Formula (III) 10 mg/kg PO QD, months 7-10
Description: The following study was conducted to evaluate the efficacy of the combination of an ASK1 inhibitor and an FXR agonist in a mouse model of non-alcoholic steatohepatitis (NASH), relative to the efficacy of the individual agents alone in the model. NASH was induced in male C57BL/6 mice by chronic administration of a “fast food” diet (FFD) high in saturated fats, cholesterol and sugars for a total of 10 months, whereas lean control animals were maintained on a normal chow diet. A NASH phenotype was established in FFD mice compared to control mice by 7 months, and was characterized by obesity, hypercholesterolemia, and AST/ALT elevation; and by histological features of NASH such as hepatocellular macrovesicular steatosis and ballooning degeneration. See Charlton M, et al. Fast food diet mouse: novel small animal model of NASH with ballooning, progressive fibrosis, and high physiological fidelity to the human condition. American journal of physiology. Gastrointestinal and liver physiology 2011; 301 (5):G825-34. […] Endpoint analyses included morphometric quantification of liver steatosis (% of steatotic area), liver cholesterol content, serum ALT/AST levels, serum bile acid levels, and nanostring evaluation of gene expression. […] Plasma samples were sent to Metabolon, Inc. (Durham, N.C.) for quantification of primary and secondary bile acids and their conjugates by LC-MS/MS.

CDHFD/NaNO2 rats [2] = test: Quantitative IHC of the myofibroblast marker desmin in liver, CDHFD/NaNO2 rat model of NASH; format: in vivo, male Wistar rats; conditions: for liver % desmin marker area: mean±SEM, vehicle-treated CDHFD/NaNO2 rats 10.3±0.8%, healthy control 0.7±0.1%; for reduction of liver desmin staining: vs vehicle-treated CDHFD/NaNO2 rats, Formula (I) 0.2% in diet, Formula (III) 30 mg/kg/day, week 4 to 14
Description: as §1

SMILES | PSR area (% area of liver) (CDHFD/NaNO2 rats [1]) [%] | reduction of liver collagen (PSR) (CDHFD/NaNO2 rats [1]) [%] | reduction in plasma bile acid levels (FFD mice) [%] | liver % desmin marker area (CDHFD/NaNO2 rats [2]) [%] | reduction of liver desmin staining (CDHFD/NaNO2 rats [2]) [%]
O=C(O)c1ccnc(N2CC(O)(c3ccc(OCc4c(-c5c(Cl)cccc5Cl)noc4C4CC4)cc3Cl)C2)c1 [Formula (III)] | 6.6±0.9 | 22 | 46 | 5.9±0.7 | 43
O=C(Nc1cccc(-c2nncn2C2CC2)c1)c1cc(-n2cnc(C3CC3)c2)ccn1 [Formula (I)] | 6.2±1.1 | 27 | 52 | 5.6±0.7 | 46
